From patent US12319655B2, “RAF kinase inhibitors and methods of use thereof” (Deciphera Pharmaceuticals, LLC, priority 2021, dated 2025)

Legend:
Format in all cases: cell-based
A375 cells = assay: A375 Cell Proliferation Assay (2); conditions: Homo sapiens, A-375
Procedure: A375 Cell Proliferation Assay (2)
A375 cells (catalog (#CRL-1619) are obtained from the American Type Culture Collect (ATTC, Manassas, VA). Briefly, cells were grown in DMEM High Glucose supplemented with 10% characterized fetal bovine serum (Invitrogen, Carlsbad, CA) and 1% Penicillin/Streptomycin/L-Glutamine at 37° C., 5% CO2, and 95% humidity. Cells are expanded until reaching 70-95% confluency at which point they are sub-cultured or harvested for assay use. Using the Beckman Coulter Echo 650, a serial dilution of test compound is dispensed into a 384-well black clear bottom plate in triplicate. Six hundred twenty-five cells are added per well in 50 μL complete growth medium in the 384-well plate. Plates are incubated for 67-72 h at 37° C., 5% CO2, and 95% humidity. At the end of the incubation, 10 μL of a 440 μM solution of resazurin (Sigma, St. Louis, MO) in PBS is added to each well of the plate and plates are incubated for an additional 3-6 h at 37° C., 5% CO2, and 95% humidity. Plates are read on a Synergy2 or equivalent reader (Biotek, Winooski VT) using an excitation of 540 nm and an emission of 600 nm. Data is analyzed using Prism software (GraphPad, San Diego, CA) to calculate IC50 values.

WM3928 cells = assay: WM3928 Cell Proliferation Assay (2)
Procedure: WM3928 Cell Proliferation Assay (2)
(§1) WM3928 cells (#WM3928-01-0001) are obtained from Rockland Immunochemicals Inc (Gilbertsville, PA). Briefly, cells were grown in MCDB 153 medium (Sigma, #M7403, St. Louis, MO) supplemented with 20% Leibovitz's L-15 (ThermoFisher #11415-064, Waltham, MA), 2% heat inactivated fetal bovine serum (ThermoFisher, #A3840001, Waltham, MA), 5 μg/mL Insulin (Bovine Pancreas) (Sigma, #10516, St. Louis, MO), 1.68 mM Calcium Chloride (Sigma, #C-34006, St. Louis, MO) and 1% Penicillin/Streptomycin/L-Glutamine (ThermoFisher #10378016, Waltham, MA) at 37° C., 5% CO2, and 95% humidity. Cells are expanded until reaching 70-95% confluency at which point they are sub-cultured or harvested for assay use. Using the Beckman Coulter Echo 650, a serial dilution of test compound is dispensed into a 384-well black clear bottom plate in triplicate. Seven hundred fifty cells are added per well in 50 μL complete growth medium in the 384-well plate. Plates are incubated for 67-72 hours at 37° C., 5% CO2, and 95% humidity. At the end of the incubation, 10 μL of a 440 μM solution of resazurin (Sigma, #199303, St. Louis, MO) in PBS is added to each well of the plate and plates are incubated for an additional 3-6 hours at 37° C., 5% CO2, and 95% humidity. Plates are read on a Synergy2 or equivalent reader (Biotek, Winooski VT) using an excitation of 540 nm and an emission of 600 nm. Data is analyzed using Prism software (GraphPad, San Diego, CA) to calculate IC50 values.

WM3629 cells = assay: WM3629 Cell Proliferation Assay (2)
Procedure: WM3629 Cell Proliferation Assay (2)
as §1, with “WM3629” for “WM3928”, “(#WM3629-01-0001)” for “(#WM3928-01-0001)”, “#I0516,” for “#10516,”, “One thousand one” for “Seven”, “twenty-five” for “fifty”

Miapaca-2 cells = assay: MiaPaca-2 Cell Proliferation Assay (2); conditions: Homo sapiens, MIA PaCa-2, single agent
Procedure: MiaPaca-2 Cell Proliferation Assay (2)
Miapaca-2 cells (catalog #CRL-1420) are obtained from the American Type Culture Collect (ATTC, Manassas, VA). Briefly, cells were grown in DMEM supplemented with 10% characterized fetal bovine serum (Invitrogen, Carlsbad, CA), 2.5% New Zealand sourced horse serum and 1% Penicillin/Streptomycin/L-Glutamine at 37° C., 5% CO2, and 95% humidity. Cells are expanded until reaching 70-95% confluency at which point they are sub-cultured or harvested for assay use. A serial dilution of test compound is dispensed into a 384-well black clear bottom plate in triplicate. Seven hundred fifty cells are added per well in 50 μL complete growth medium in the 384-well plate. Plates are incubated for 67-72 h at 37° C., 5% CO2, and 95% humidity. At the end of the incubation, 10 μL of a 440 μM solution of resazurin (Sigma, St. Louis, MO) in PBS is added to each well of the plate and plates are incubated for an additional 5-6 h at 37° C., 5% CO2, and 95% humidity. Plates are read on a Synergy2 or equivalent reader (Biotek, Winooski VT) using an excitation of 540 nm and an emission of 600 nm. Data is analyzed using Prism software (GraphPad, San Diego, CA) to calculate IC50 values.

Row | IC50 (A375 cells) | IC50 (Miapaca-2 cells) | Structure (SMILES) | IC50 (WM3928 cells) | IC50 (WM3629 cells)
1 | 0.1 to 0.5 µM | 1 to 10 µM | Cc1ccc(NC(=O)c2cc(C(F)(F)F)ccc2F)cc1-c1ccnc(-c2ccnc(NC(=O)C3CC3)c2)c1 [Example 503] | ≤ 0.1 µM | ≤ 0.1 µM
2 | ≤ 0.1 µM | 1 to 10 µM | CNC(=O)c1cc(-c2cc(-c3cc(NC(=O)c4ccnc(C(C)(C)F)c4)ncc3C)ccn2)ccn1 [Example 499] | 0.1 to 0.5 µM | ≤ 0.1 µM
3 | ≤ 0.1 µM | 0.5 to 1 µM | Cc1ccc(NC(=O)c2cccc(C(F)(F)F)c2)cc1-c1ccnc(-c2ccnc(NC(=O)C3CC3)c2)c1 [Example 502] | ≤ 0.1 µM | ≤ 0.1 µM
4 | 1 to 10 µM | 1 to 10 µM | Cc1ccc(NC(=O)c2cn(C)nc2C(F)(F)F)cc1-c1cncc(-c2ccnc(NC(=O)C3CC3)c2)c1 [Example 500] | 0.5 to 1 µM | ≤ 0.1 µM
5 | ≤ 0.1 µM | 1 to 10 µM | CNC(=O)c1cc(-c2cc(-c3cc(NC(=O)c4ccnc(C5(F)CC5)c4)ccc3C)cc(C)n2)ccn1 [Example 496] | ≤ 0.1 µM | ≤ 0.1 µM
6 | 0.1 to 0.5 µM | 1 to 10 µM | CNC(=O)c1cc(-c2cc(-c3cc(NC(=O)c4ccnc(C(C)(C)F)c4)c(F)cc3C)ccn2)ccn1 [Example 497] | 0.1 to 0.5 µM | ≤ 0.1 µM
7 | 1 to 10 µM | 1 to 10 µM | CNC(=O)c1cc(-c2cc(-c3cc(NC(=O)c4ccnc(C(C)(C)F)n4)ccc3C)ccn2)ccn1 [Example 494] | 0.5 to 1 µM | ≤ 0.1 µM
8 | 0.1 to 0.5 µM | 1 to 10 µM | Cc1ccc(NC(=O)c2ccc(C(F)(F)F)cc2)cc1-c1ccnc(-c2ccnc(NC(=O)C3CC3)c2)c1 [Example 501] | 0.1 to 0.5 µM | ≤ 0.1 µM
9 | 0.1 to 0.5 µM | 1 to 10 µM | [2H]C([2H])([2H])NC(=O)c1cc(-c2cc(-c3cc(NC(=O)c4ccnc(C5(F)CC5)c4)ccc3C)cc(C)n2)ccn1 [Example 498] | ≤ 0.1 µM | ≤ 0.1 µM
10 | ≤ 0.1 µM | 1 to 10 µM | CNC(=O)c1cc(-c2cc(-c3cc(NC(=O)c4cnnc(C(C)(C)F)c4)ccc3C)ccn2)ccn1 [Example 495] | ≤ 0.1 µM | ≤ 0.1 µM

The remaining lines, values behind:

Row | Structure (SMILES) | IC50 (A375 cells) | IC50 (Miapaca-2 cells) | IC50 (WM3928 cells) | IC50 (WM3629 cells)
11 | Cc1ccc(NC(=O)c2ccnc(C(C)(C)F)c2)cc1-c1cc(-c2ccnc(C(N)=O)c2)ncn1 [Example 488] | 0.1 to 0.5 µM |  | 0.1 to 0.5 µM | ≤ 0.1 µM
12 | [2H]C([2H])([2H])NC(=O)c1cc(-c2cc(-c3cc(NC(=O)c4ccnc(C(C)(C)F)c4)ccc3C)ccn2)ccn1 [Example 489] | ≤ 0.1 µM | 1 to 10 µM | ≤ 0.1 µM | ≤ 0.1 µM
13 | Cc1ccc(NC(=O)c2ccnc(C(C)(C)F)c2)cc1-c1cc(-c2ccnc(C(N)=O)c2)ncc1F [Example 490] | 0.1 to 0.5 µM |  | 0.1 to 0.5 µM | ≤ 0.1 µM
14 | CC(C)(F)c1cc(C(=O)Nc2ccc(F)c(-c3ccnc(-c4ccnc(C(N)=O)c4)c3)c2)ccn1 [Example 491] | 1 to 10 µM |  | 0.5 to 1 µM | ≤ 0.1 µM
15 | [2H]C([2H])([2H])NC(=O)c1cc(-c2cc(-c3cc(NC(=O)c4ccnc(C(C)(C)F)c4)ccc3C)cc(C)n2)ccn1 [Example 493] | ≤ 0.1 µM | 1 to 10 µM | ≤ 0.1 µM | ≤ 0.1 µM
16 | CNC(=O)c1cc(-c2cc(-c3cc(NC(=O)c4ccnc(C(C)(C)F)c4)ccc3Cl)ccn2)ccn1 [Example 485] | ≤ 0.1 µM | 1 to 10 µM | ≤ 0.1 µM | ≤ 0.1 µM
17 | CNC(=O)c1cc(-c2cc(-c3cc(NC(=O)c4cnnc(C(C)(F)F)c4)ccc3C)ccn2)ccn1 [Example 492] | 0.1 to 0.5 µM |  | 0.1 to 0.5 µM | ≤ 0.1 µM
18 | CNC(=O)c1cc(-c2cc(-c3cc(NC(=O)c4ccnc(C5(F)CC5)c4)ccc3C)ccn2)ccn1 [Example 487] | ≤ 0.1 µM | 1 to 10 µM | ≤ 0.1 µM | ≤ 0.1 µM
19 | Cc1ccc(NC(=O)c2ccnc(C(C)(C)F)c2)cc1-c1cnnc(-c2ccnc(C(N)=O)c2)c1 [Example 486] | 0.1 to 0.5 µM | 1 to 10 µM | 0.1 to 0.5 µM | ≤ 0.1 µM
